According to US20220202799A1, “PHARMACEUTICAL FORMULATIONS CONTAINING P2Y14 ANTAGONISTS” (priority 2019, published 2022):
Several values for one entry are separate records, joined by “and”; a condition that tells them apart may be missing. Equal values may be shown once. Read-outs that look alike come from different tables or passages of the source.

Legend:
[1] = Potency and purity of diluted dosing solutions after manufacture and shipping; format: physicochemical; details: for [KB-1801] determined by HPLC assay: shipped at ambient temperature
Description: The stability of high-concentration PPTN solutions containing SBECD were analyzed under conditions used for product manufacturing and distribution. A stock solution containing 8.6 mg/mL PPTN, 12% SBECD in saline was prepared as described above and shipped under refrigerated conditions. Seven days after manufacture, the stock solution was diluted to make dosing solutions for administration as a continuous intravenous infusion as indicated in Table 14 and Table 15.
Samples of diluted dosing solutions were shipped at ambient temperature and analyzed for PPTN (KB-1801) potency and purity.

[2] = Plasma pharmacokinetics after single bolus intravenous injection; format: in vivo; details: male rats; single bolus intravenous injection 0.85, 2.9 or 8.5 mg/kg; SBECD solution
Description: The pharmacokinetics of PPTN (KB-1801) in male rats receiving single bolus intravenous injections of SBECD-containing solutions were analyzed. Three cohorts of four rats each were given a single dose of PPTN (KB-1801) at 0.85 mg/kg, 2.9 mg/kg, or 8.5 mg/kg in 1 mL dosing volume.

[3] = Plasma concentrations and TK parameters, 72-hour continuous intravenous infusion; format: in vivo, Sprague-Dawley rats; details: for Accumulation ratio (C72h/C24h) / Css / Female/Male C72h / Accumulation ratio / half-life: 72 hours of intravenous infusion; for half-life / concentration at 24 h / concentration at 48 h / concentration at 72 h / concentration at 78 h / concentration at 84 h / concentration at 96 h: Sprague-Dawley, rat, plasma; for Plasma concentration, individual animal / concentration at 24 h / concentration at 48 h / concentration at 72 h / concentration at 78 h / concentration at 84 h / concentration at 96 h: female Sprague-Dawley rats; for concentration at 24 h / concentration at 48 h / concentration at 72 h / concentration at 78 h / concentration at 84 h / concentration at 96 h: female, iv
Description: The safety and pharmacokinetics of PPTN (KB-1801) in rats receiving continuous intravenous injections of SBECD-containing solutions were analyzed. Three cohorts of six male and six female rats each were given continuous intravenous infusion of PPTN (KB-1801) at 10 mg/kg/day, 30 mg/kg/day or 100 mg/kg/day in a dosing solution containing PPTN at 0.25 mg/mL, 0.75 mg/mL or 2.5 mg/mL and SBECD at about 3.8%. Dosing volume was 40 mIkg/day. [table]

[4] = dosing solution, targeted [KB-1801] 0.25 mg/mL
[5] = dosing solution, targeted [KB-1801] 0.75 mg/mL
[6] = dosing solution, targeted [KB-1801] 2.5 mg/mL
[7] = Female, Group 16, 100 mg/kg/day

O=C(O)c1cc(-c2ccc(C3CCNCC3)cc2)c2ccc(-c3ccc(C(F)(F)F)cc3)cc2c1 [KB-1801, 4-[4-(piperidin-4-yl)phenyl]-7-[4-(trifluoromethyl)phenyl]-2-naphthoic acid]
Concentration higher than target concentrations ([1]; all dosing solution samples): 1.6-8.0% | Degradation products ([1]; all dosing solution samples): No evidence of degradation products was observed in any sample | Impurity profile by HPLC area % [1, 4]: No imp > 0.10 a % | [KB-1801] determined by HPLC assay [1, 4]: 0.27 mg/mL and 0.26 mg/mL | Impurity profile by HPLC area % [1, 5]: No imp > 0.10 a % | [KB-1801] deviation from targeted concentration [1, 5]: +1.3% | [KB-1801] determined by HPLC assay [1, 5]: 0.76 mg/mL | Impurity profile by HPLC area % [1, 6]: No imp > 0.10 a % | [KB-1801] determined by HPLC assay [1, 6]: 2.56 mg/mL and 2.57 mg/mL | PK parameters, relation to dose [2]: linearly dose-related | Pharmacokinetics of plasma PPTN, model [2]: well-described by a 2-compartment model | Accumulation ratio (C72h/C24h) ([3]; Female, Group14, 10 mg/kg/day): 0.91 | Css ([3]; Female, Group14, 10 mg/kg/day): 606.0 ± 52.0 ng/mL | Accumulation ratio (C72h/C24h) ([3]; Female, Group 15, 30 mg/kg/day): 0.84 | Css ([3]; Female, Group 15, 30 mg/kg/day): 2037.0 ± 433.7 ng/mL | Accumulation ratio (C72h/C24h) [3, 7]: 0.88 | Css [3, 7]: 6595.6 ± 696.2 ng/mL | Female/Male C72h ([3]; Group14, 10 mg/kg/day): 1.05 | Female/Male C72h ([3]; Group 15, 30 mg/kg/day): 1.18 | Female/Male C72h ([3]; Group 16, 100 mg/kg/day): 0.70 | Accumulation ratio ([3]; Male, Group14, 10 mg/kg/day): 0.74 | Css ([3]; Male, Group14, 10 mg/kg/day): 636.4 ± 96.8 ng/mL | Accumulation ratio ([3]; Male, Group 15, 30 mg/kg/day): 0.86 | Css ([3]; Male, Group 15, 30 mg/kg/day): 1974.4 ± 240.2 ng/mL | Accumulation ratio ([3]; Male, Group 16, 100 mg/kg/day): 1.03 | Css ([3]; Male, Group 16, 100 mg/kg/day): 7774.6 ± 1241.3 ng/mL | half-life ([3]; Female, Group14, 10 mg/kg/day): 6.67 ± 1.21 h | half-life ([3]; Female, Group 15, 30 mg/kg/day): 7.06 ± 0.93 h | half-life [3, 7]: 6.64 ± 0.36 h | half-life ([3]; Male, Group14, 10 mg/kg/day): 7.91 ± 1.06 h | half-life ([3]; Male, Group 15, 30 mg/kg/day): 8.29 ± 0.93 h | half-life ([3]; Male, Group 16, 100 mg/kg/day): 8.83 ± 3.33 h | Plasma concentration, individual animal ([3]; 72-hour intravenous infusion at 10 mg/kg/day, time 24 h, 10 mg/kg/day): 784.2 ng/mL and 685.7 ng/mL | Plasma concentration, individual animal ([3]; 72-hour intravenous infusion at 10 mg/kg/day, time 48 h, 10 mg/kg/day): 650.5 ng/mL and 588.8 ng/mL | Plasma concentration, individual animal ([3]; 72-hour intravenous infusion at 10 mg/kg/day, time 72 h, 10 mg/kg/day): 756.4 ng/mL and 602.0 ng/mL | Plasma concentration, individual animal ([3]; 72-hour intravenous infusion at 10 mg/kg/day, time 78 h, 10 mg/kg/day): 131.4 ng/mL and 160.1 ng/mL | Plasma concentration, individual animal ([3]; 72-hour intravenous infusion at 10 mg/kg/day, time 84 h, 10 mg/kg/day): 103.5 ng/mL and 64.3 ng/mL | Plasma concentration, individual animal ([3]; 72-hour intravenous infusion at 10 mg/kg/day, time 96 h, 10 mg/kg/day): 22.9 ng/mL and 15.3 ng/mL | Plasma concentration, individual animal ([3]; 72-hour intravenous infusion at 30 mg/kg/day, time 24 h, 30 mg/kg/day): 2027.1 ng/mL and 2581.5 ng/mL | Plasma concentration, individual animal ([3]; 72-hour intravenous infusion at 30 mg/kg/day, time 48 h, 30 mg/kg/day): 1661.0 ng/mL and 1763.6 ng/mL | Plasma concentration, individual animal ([3]; 72-hour intravenous infusion at 30 mg/kg/day, time 72 h, 30 mg/kg/day): 1397.7 ng/mL and 2300.3 ng/mL | Plasma concentration, individual animal ([3]; 72-hour intravenous infusion at 30 mg/kg/day, time 78 h, 30 mg/kg/day): 449.3 ng/mL and 585.0 ng/mL | Plasma concentration, individual animal ([3]; 72-hour intravenous infusion at 30 mg/kg/day, time 84 h, 30 mg/kg/day): 453.1 ng/mL and 160.2 ng/mL and 306.2 ng/mL | Plasma concentration, individual animal ([3]; 72-hour intravenous infusion at 30 mg/kg/day, time 96 h, 30 mg/kg/day): 75.6 ng/mL and 115.3 ng/mL | Plasma concentration, individual animal ([3]; 72-hour intravenous infusion at 100 mg/kg/day, time 24 h, 100 mg/kg/day): 6709.0 ng/mL and 8238.2 ng/mL | Plasma concentration, individual animal ([3]; 72-hour intravenous infusion at 100 mg/kg/day, time 48 h, 100 mg/kg/day): 5872.0 ng/mL and 8226.5 ng/mL | Plasma concentration, individual animal ([3]; 72-hour intravenous infusion at 100 mg/kg/day, time 72 h, 100 mg/kg/day): 6680.1 ng/mL and 6734.5 ng/mL | Plasma concentration, individual animal ([3]; 72-hour intravenous infusion at 100 mg/kg/day, time 78 h, 100 mg/kg/day): 1454.4 ng/mL and 2119.8 ng/mL | Plasma concentration, individual animal ([3]; 72-hour intravenous infusion at 100 mg/kg/day, time 84 h, 100 mg/kg/day): 1075.5 ng/mL and 1046.1 ng/mL | Plasma concentration, individual animal ([3]; 72-hour intravenous infusion at 100 mg/kg/day, time 96 h, 100 mg/kg/day): 211.8 ng/mL and 342.6 ng/mL | concentration at 24 h ([3]; 10 mg/kg/day, 72-hour intravenous infusion at 10 mg/kg/day, time 24 h, read-out: Plasma concentration, Mean): 688 ng/mL | concentration at 24 h ([3]; 10 mg/kg/day, 72-hour intravenous infusion at 10 mg/kg/day, time 24 h, read-out: Plasma concentration, individual animal): 595 ng/mL | concentration at 48 h ([3]; 10 mg/kg/day, 72-hour intravenous infusion at 10 mg/kg/day, time 48 h, read-out: Plasma concentration, Mean): 654 ng/mL | concentration at 48 h ([3]; 10 mg/kg/day, 72-hour intravenous infusion at 10 mg/kg/day, time 48 h, read-out: Plasma concentration, individual animal): 722 ng/mL | concentration at 72 h ([3]; 10 mg/kg/day, 72-hour intravenous infusion at 10 mg/kg/day, time 72 h, read-out: Plasma concentration, Mean): 624 ng/mL | concentration at 72 h ([3]; 10 mg/kg/day, 72-hour intravenous infusion at 10 mg/kg/day, time 72 h, read-out: Plasma concentration, individual animal): 514 ng/mL | concentration at 78 h ([3]; 10 mg/kg/day, 72-hour intravenous infusion at 10 mg/kg/day, time 78 h, read-out: Plasma concentration, Mean): 147 ng/mL | concentration at 78 h ([3]; 10 mg/kg/day, 72-hour intravenous infusion at 10 mg/kg/day, time 78 h, read-out: Plasma concentration, individual animal): 150 ng/mL | concentration at 84 h ([3]; 10 mg/kg/day, 72-hour intravenous infusion at 10 mg/kg/day, time 84 h, read-out: Plasma concentration, Mean): 80.9 ng/mL | concentration at 84 h ([3]; 10 mg/kg/day, 72-hour intravenous infusion at 10 mg/kg/day, time 84 h, read-out: Plasma concentration, individual animal): 74.8 ng/mL | concentration at 96 h ([3]; 10 mg/kg/day, 72-hour intravenous infusion at 10 mg/kg/day, time 96 h, read-out: Plasma concentration, Mean): 22.5 ng/mL | concentration at 96 h ([3]; 10 mg/kg/day, 72-hour intravenous infusion at 10 mg/kg/day, time 96 h, read-out: Plasma concentration, individual animal): 29.3 ng/mL | concentration at 24 h ([3]; 30 mg/kg/day, 72-hour intravenous infusion at 30 mg/kg/day, time 24 h, read-out: Plasma concentration, Mean): 2340 ng/mL | concentration at 24 h ([3]; 30 mg/kg/day, 72-hour intravenous infusion at 30 mg/kg/day, time 24 h, read-out: Plasma concentration, individual animal): 2420 ng/mL | concentration at 48 h ([3]; 30 mg/kg/day, 72-hour intravenous infusion at 30 mg/kg/day, time 48 h, read-out: Plasma concentration, Mean): 2210 ng/mL | concentration at 48 h ([3]; 30 mg/kg/day, 72-hour intravenous infusion at 30 mg/kg/day, time 48 h, read-out: Plasma concentration, individual animal): 3220 ng/mL | concentration at 72 h ([3]; 30 mg/kg/day, 72-hour intravenous infusion at 30 mg/kg/day, time 72 h, read-out: Plasma concentration, Mean): 1970 ng/mL | concentration at 72 h ([3]; 30 mg/kg/day, 72-hour intravenous infusion at 30 mg/kg/day, time 72 h, read-out: Plasma concentration, individual animal): 2210 ng/mL | concentration at 78 h ([3]; 30 mg/kg/day, 72-hour intravenous infusion at 30 mg/kg/day, time 78 h, read-out: Plasma concentration, Mean): 544 ng/mL | concentration at 78 h ([3]; 30 mg/kg/day, 72-hour intravenous infusion at 30 mg/kg/day, time 78 h, read-out: Plasma concentration, individual animal): 597 ng/mL
